The target in assay [1] is T1, CDK7 (Homo sapiens, UniProt P50613). The assay is described as follows: CDK7 target occupancy in Jurkat cells. More on the design: endogenous in cells; host or cells: Jurkat. Format: cell-based.
Target sequence in this assay (P50613 2-346 limits assumed): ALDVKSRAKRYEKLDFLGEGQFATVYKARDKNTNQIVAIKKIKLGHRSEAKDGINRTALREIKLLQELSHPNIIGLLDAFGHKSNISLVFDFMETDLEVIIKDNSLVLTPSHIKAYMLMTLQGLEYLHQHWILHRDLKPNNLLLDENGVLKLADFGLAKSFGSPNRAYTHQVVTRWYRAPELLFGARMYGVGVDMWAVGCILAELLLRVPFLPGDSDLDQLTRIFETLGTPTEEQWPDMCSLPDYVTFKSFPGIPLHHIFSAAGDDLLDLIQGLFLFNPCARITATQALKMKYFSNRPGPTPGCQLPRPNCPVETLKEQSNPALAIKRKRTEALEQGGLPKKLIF
Target sequence in this assay (P51946 whole entry partner): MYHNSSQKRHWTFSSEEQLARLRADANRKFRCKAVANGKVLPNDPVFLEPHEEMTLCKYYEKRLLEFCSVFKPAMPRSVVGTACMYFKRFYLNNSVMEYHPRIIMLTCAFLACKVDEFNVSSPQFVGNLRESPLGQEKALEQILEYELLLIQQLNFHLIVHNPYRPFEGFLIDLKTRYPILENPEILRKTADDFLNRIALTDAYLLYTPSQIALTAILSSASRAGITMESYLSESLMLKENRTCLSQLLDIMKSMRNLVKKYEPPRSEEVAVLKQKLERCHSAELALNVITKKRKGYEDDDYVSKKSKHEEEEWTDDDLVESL
Target sequence in this assay (P51948 whole entry partner): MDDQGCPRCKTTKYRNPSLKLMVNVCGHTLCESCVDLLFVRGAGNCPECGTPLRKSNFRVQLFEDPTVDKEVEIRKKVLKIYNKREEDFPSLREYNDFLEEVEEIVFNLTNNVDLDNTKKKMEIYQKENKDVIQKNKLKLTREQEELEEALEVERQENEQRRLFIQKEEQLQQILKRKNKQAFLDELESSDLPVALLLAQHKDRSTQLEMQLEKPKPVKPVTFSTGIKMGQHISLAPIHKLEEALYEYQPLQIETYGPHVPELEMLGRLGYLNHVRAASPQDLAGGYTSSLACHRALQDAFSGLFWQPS
The target in assay [2] is T2, CDK12 (Homo sapiens, UniProt Q9NYV4). Briefly: CDK12 plate based target engagement assay in Jurkat cells. Format: cell-based. Further details: endogenous in cells; host or cells: Jurkat. The note with it: 6 hours treatment, Bio-THZ531 competition. On the procedure: Jurkat cells were treated with varying concentrations of the compound for 6 hours. The DMSO concentration was maintained at 0.1%. Cells were harvested and lysed. 200 μg of the lysate was incubated with 1 μM Bio-THZ531 in the presence of 1mM DTT and incubated on a rocker at 4° C. overnight. 100 μL of this sample was added to pre-washed streptavidin coated plates and incubated at room temperature on a rocker for 2 hours. The plates were washed and incubated with CDK12 antibody for overnight at 4° C. Next day the plate was washed and incubated for 2 hours with HRP labelled anti rabbit secondary antibody. Bio-THZ531 bound CDK12 was determined using TMB substrate. The plates were read using the M3 spectrophotometer at […]. Percentage CDK12 occupancy with the test compound was calculated over untreated control. Occupancy50 was calculated by fitting the dose response data to sigmoidal curve fitting equation using GraphPad Prism software V5.

Assay [3] deals with T1, CDK7. The assay is described as follows: Biochemical assay for CDK7 (LANCE TR-FRET, ULight-MBP phosphorylation). The note with it: CDK7 10 nM, ATP 1 mM/100 μM, 60 min pre-incubation. On the procedure:
The inhibitory activity of the test compounds was assessed by the LANCE TR-FRET assay, which detects the ATP-dependent phosphorylation of an ULight-myelin basic protein (MBP) substrate peptide (100 nM) by CDK7 (10 nM). Briefly, the enzyme reaction was run in reaction buffer (20 mM HEPES (pH 7.5), 10 mM MgCl2, 0.01% Triton x, 100 μM Sodium Orthovanadate, 1 mM DTT). The assay was performed in 384-well plate. The end concentration of the ATP substrate was 1 mM/100 μM, and that of the ULight-MBP substrate peptide was 100 nM, and of CDK7 was 10 nM. Pre-incubation of the compound and enzyme was performed for 60 min at room temperature. After 60 min incubation at room temperature, the reaction was terminated by the addition of 40 mM EDTA and 1 nM Eu-labeled anti-phospho-MBP-binding protein antibody in the buffer. Time-resolved fluorescence (excitation, 320 nm; emission donor, 615 nm; emission acceptor, 665 nm) was monitored by using 2030 multilabel reader Victor5 (PerkinElmer). The readout was calculated as (acceptor counts/donor counts)×1000. The IC50 values were derived by fitting a sigmoidal dose-response curve to a plot of assay readout over inhibitor concentration. All fits were computed with the program Prism 5.03 (Graph Pad Software, San Diego, Calif.).
Target sequence in this assay (P50613 whole entry, species assumed): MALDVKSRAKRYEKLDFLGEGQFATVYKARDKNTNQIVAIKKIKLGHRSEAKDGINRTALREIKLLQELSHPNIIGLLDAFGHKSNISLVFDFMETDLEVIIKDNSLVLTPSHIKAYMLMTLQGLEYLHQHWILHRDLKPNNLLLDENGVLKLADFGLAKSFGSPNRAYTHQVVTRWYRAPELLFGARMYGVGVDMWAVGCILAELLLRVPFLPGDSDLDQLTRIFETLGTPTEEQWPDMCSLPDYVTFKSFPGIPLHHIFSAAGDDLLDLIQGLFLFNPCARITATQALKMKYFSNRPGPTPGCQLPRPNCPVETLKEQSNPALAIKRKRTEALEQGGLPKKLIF
Target sequence in this assay (P51946 whole entry partner, species assumed): as the sequence (P51946 whole entry partner) above
Target sequence in this assay (P51948 whole entry partner, species assumed): as the sequence (P51948 whole entry partner) above
A general note: TR-FRET usually uses a lanthanide donor and a delayed reading to cut background.

The next assay has as its target CDK13 (Homo sapiens, UniProt Q14004). The assay is described as follows: Biochemical assay for CDK13 (LanthaScreen Eu Kinase Binding Assay). The note with it: kinase tracer 236 100 nM, CDK13 5 nM. On the procedure: LanthaScreen Eu Kinase Binding Assays are based on the binding and displacement of Alexa Fluor 647-labeled, ATP-competitive kinase inhibitor scaffold (kinase tracer) to the kinase of interest. Binding of the kinase tracer 236 (100 nM) to the CDK13 (5 nM) kinase is detected using a europium-labelled anti- GST tag antibody (2 nM), which binds to the kinase. Simultaneous binding of the tracer and antibody to the kinase results in a high degree of FRET (fluorescence resonance energy transfer) from the europium (Eu) donor fluorophore to the Alexa Fluor™ 647 acceptor fluorophore on the kinase tracer. Binding of an inhibitor to the kinase competes for binding with the tracer, resulting in a loss of FRET signal.

In assay [4] the target is T2, CDK12. Briefly: Biochemical assay for CDK12 (kinase-tagged phage / qPCR competition binding). Further details: host or cells: E. coli BL21-derived host (T7 phage display) or HEK-293. On the procedure: Kinase-tagged T7 phage strains were grown in parallel in 24-well blocks in an E. coli host derived from the BL21 strain. E. coli were grown to log-phase and infected with T7 phage from a frozen stock (multiplicity of infection=0.4) and incubated with shaking at 32° C. until lysis (90-150 minutes). The lysates were centrifuged (6,000×g) and filtered (0.2 μm) to remove cell debris. The remaining kinases were produced in HEK-293 cells and subsequently tagged with DNA for qPCR detection. Streptavidin-coated magnetic beads were treated with biotinylated small molecule ligands for 30 minutes at room temperature to generate affinity resins for kinase assays. The liganded beads were blocked with excess biotin and washed with blocking buffer (SeaBlock (Pierce), 1% BSA, 0.05% Tween 20, 1 mM
DTT) to remove unbound ligand and to reduce non-specific phage binding. Binding reactions were assembled by combining kinases, liganded affinity beads, and test compounds in lx binding buffer (20% SeaBlock, 0.17×PBS, 0.05% Tween 20, 6 mM DTT). Test compounds were prepared as 40× stocks in 100% DMSO and directly diluted into the assay. All reactions were performed in polypropylene 384-well plates in a final volume of 0.02 ml. The assay plates were incubated at room temperature with shaking for 1 hour and the affinity beads were washed with wash buffer (1 PBS, 0.05% Tween 20). The beads were then re-suspended in elution buffer (1× PBS, 0.05% Tween 20, 0.5 μM non-biotinylated affinity ligand) and incubated at room temperature with shaking for 30 minutes. The kinase concentration in the eluates was measured by qPCR.
Target sequence in this assay (Q9NYV4 whole entry, species assumed): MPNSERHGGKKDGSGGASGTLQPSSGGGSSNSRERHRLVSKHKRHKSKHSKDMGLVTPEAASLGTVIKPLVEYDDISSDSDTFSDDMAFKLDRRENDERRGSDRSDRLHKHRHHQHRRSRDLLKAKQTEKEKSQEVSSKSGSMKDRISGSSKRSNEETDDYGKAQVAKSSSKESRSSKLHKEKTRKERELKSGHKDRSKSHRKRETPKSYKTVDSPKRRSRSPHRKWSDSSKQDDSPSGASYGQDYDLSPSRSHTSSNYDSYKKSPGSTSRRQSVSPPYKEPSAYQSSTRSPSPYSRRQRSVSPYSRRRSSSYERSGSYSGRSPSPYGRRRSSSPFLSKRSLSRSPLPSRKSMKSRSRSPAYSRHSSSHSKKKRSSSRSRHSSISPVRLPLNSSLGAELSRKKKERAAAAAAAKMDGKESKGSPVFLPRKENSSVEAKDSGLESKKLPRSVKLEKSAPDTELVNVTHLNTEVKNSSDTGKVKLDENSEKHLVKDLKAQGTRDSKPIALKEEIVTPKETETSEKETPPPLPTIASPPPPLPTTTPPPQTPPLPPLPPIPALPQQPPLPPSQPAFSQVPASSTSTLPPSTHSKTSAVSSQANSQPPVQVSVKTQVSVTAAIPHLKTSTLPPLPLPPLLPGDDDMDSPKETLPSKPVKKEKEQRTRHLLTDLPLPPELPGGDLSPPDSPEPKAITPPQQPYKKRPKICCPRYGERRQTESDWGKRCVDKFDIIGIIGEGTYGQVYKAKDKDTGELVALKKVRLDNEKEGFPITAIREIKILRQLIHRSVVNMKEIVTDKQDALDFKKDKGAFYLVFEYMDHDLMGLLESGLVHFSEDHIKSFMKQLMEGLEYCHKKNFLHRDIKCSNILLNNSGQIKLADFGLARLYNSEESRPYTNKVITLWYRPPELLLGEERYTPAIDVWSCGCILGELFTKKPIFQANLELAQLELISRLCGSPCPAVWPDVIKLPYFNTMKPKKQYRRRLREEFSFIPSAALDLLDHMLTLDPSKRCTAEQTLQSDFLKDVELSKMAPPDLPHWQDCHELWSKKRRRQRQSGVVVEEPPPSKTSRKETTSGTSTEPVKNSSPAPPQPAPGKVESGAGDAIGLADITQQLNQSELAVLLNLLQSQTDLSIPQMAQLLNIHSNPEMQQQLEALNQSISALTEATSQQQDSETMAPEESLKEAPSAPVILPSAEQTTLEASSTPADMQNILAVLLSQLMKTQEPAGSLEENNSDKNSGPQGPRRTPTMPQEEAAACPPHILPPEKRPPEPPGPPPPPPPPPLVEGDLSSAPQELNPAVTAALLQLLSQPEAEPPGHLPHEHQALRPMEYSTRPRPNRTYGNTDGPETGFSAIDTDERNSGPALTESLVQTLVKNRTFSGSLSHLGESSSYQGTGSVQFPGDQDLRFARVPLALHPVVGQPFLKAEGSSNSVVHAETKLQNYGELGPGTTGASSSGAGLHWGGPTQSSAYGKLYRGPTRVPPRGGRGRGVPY
Background: Real-time PCR tracks product formation cycle by cycle.

pIC50, pKd: −log10 of the molar value. A value given as a limit tells only on which side of the number the result lay.

Chain of CDK13 (Q14004 whole entry, species assumed): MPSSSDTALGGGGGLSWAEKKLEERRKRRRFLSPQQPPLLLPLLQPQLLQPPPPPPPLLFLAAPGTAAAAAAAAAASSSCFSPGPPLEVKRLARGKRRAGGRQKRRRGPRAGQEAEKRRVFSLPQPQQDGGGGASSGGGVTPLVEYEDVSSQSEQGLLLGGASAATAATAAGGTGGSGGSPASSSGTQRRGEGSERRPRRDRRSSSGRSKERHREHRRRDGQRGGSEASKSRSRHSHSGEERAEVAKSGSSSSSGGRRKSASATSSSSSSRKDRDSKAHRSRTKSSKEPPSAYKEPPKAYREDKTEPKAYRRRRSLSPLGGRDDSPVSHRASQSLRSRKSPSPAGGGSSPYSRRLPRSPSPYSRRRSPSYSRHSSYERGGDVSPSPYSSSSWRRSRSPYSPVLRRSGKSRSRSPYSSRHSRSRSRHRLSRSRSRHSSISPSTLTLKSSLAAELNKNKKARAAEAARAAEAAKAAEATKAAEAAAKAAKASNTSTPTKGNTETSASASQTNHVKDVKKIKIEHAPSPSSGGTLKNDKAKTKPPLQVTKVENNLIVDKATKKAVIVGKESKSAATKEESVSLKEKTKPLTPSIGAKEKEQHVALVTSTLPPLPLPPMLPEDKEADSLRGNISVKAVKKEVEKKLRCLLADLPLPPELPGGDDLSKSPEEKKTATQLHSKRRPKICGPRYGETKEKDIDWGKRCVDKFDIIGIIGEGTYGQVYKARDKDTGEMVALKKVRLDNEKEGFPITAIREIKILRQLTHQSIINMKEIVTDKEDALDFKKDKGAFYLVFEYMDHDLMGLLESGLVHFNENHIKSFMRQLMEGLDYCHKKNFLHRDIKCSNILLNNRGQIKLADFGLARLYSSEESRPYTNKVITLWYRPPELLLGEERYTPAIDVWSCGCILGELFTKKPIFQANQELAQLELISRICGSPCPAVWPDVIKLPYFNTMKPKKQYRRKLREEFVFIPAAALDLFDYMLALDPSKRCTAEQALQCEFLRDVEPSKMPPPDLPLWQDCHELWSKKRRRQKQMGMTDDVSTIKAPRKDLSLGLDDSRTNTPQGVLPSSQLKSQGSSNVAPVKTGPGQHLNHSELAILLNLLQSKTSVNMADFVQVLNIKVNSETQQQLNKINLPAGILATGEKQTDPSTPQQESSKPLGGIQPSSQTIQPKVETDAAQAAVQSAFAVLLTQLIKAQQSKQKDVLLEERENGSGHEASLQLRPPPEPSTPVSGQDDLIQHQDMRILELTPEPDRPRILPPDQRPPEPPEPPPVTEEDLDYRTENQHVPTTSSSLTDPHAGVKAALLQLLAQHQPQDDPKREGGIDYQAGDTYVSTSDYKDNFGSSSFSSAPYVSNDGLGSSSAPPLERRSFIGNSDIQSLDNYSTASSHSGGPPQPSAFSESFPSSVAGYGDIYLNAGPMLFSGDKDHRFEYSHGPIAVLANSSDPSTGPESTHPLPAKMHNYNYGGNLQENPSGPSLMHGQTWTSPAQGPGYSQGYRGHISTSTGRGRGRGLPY
Chain of CDK13 (O75909 whole entry partner, species assumed): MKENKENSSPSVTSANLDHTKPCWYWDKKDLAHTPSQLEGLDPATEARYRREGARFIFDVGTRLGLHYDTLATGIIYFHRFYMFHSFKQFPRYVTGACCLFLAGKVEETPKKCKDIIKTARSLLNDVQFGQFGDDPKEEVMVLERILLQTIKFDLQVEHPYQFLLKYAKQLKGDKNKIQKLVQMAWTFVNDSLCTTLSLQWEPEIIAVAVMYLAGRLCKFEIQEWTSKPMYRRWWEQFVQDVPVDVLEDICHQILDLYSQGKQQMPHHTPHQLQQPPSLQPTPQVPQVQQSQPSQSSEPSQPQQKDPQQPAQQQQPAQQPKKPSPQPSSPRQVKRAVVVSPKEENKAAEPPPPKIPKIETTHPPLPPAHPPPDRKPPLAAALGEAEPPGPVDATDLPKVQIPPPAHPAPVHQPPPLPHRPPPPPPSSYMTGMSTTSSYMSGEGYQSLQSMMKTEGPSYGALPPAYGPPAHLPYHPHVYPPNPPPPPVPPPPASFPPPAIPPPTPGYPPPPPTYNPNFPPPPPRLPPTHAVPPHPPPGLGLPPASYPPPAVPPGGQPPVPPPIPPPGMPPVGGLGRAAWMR

On to `C=CC(=O)NCc1ccc(-c2cccc(C(C)C(=O)Nc3cc(C4CC4)[nH]n3)c2)cn1` (centres unmarked) [Compound A], for which, on CDK7 [1], the “Jurkat Cells, CDK7 Target Occ50” value stood at 0.61 µM. At CDK7 [1] (printed in brackets beside the CDK7 Occ50), the “Fold CDK7 Target Occ50 over CDK12 Target Occ50” value is 2 ×. The compound also yielded a Jurkat Cells, CDK12 Target Occ50 on CDK12 [2] of 0.23 µM.

Consider `C=CC(=O)NCc1ccc(C(C)C(=O)Nc2cc(C3CC3)[nH]n2)cc1` (racemic) [Compound 23, N-(4-(1-((5-cyclopropyl-1H-pyrazol-3-yl)amino)-1-oxopropan-2-yl)benzyl)acrylamide], for which the results for the negative-log IC50 (pIC50) at CDK7 [3] and at CDK13 were less than 5.00 and 6.55, respectively. For the same compound, the pKd (as a rule, the Kd on a negative log10 scale, so that one unit is a factor of ten) on CDK12 [4] was 6.30 to 7.30.

For the compound `C=CC(=O)NCc1ccc(-c2ccc([C@H](C)C(=O)Nc3cc(C4CC4)[nH]n3)cc2)cn1` [Compound 8, (S)-N-((5-(4-(1-((5-cyclopropyl-1H-pyrazol-3-yl)amino)-1-oxopropan-2-yl)phenyl)pyridin-2-yl)methyl)acrylamide], on CDK7 [1], the “Jurkat Cells, CDK7 Target Occ50” value is >>2 μM. For the same compound, the pIC50 (as a rule, the IC50 on a negative log10 scale, so that one unit is a factor of ten) against CDK7 [3] was 5.27; on CDK13, 8.42. Moreover, the pKd on CDK12 [4] was greater than 7.30. Also, on CDK12 [2], the “Jurkat Cells, CDK12 Target Occ50” value is 0.022 µM.

With `CC(C(=O)Nc1cc(C2CC2)[nH]n1)c1ccc(-c2ccc(CNC(=O)/C=C/CN3CCOCC3)cc2)cc1` (single isomer, unassigned) [Compound 16, (E)-N-((4′-(1-((5-cyclopropyl-1H-pyrazol-3-yl)amino)-1-oxopropan-2-yl)-[1,1′-biphenyl]-4-yl)methyl)-4-morpholinobut-2-enamide], the pIC50 against CDK7 [3] was less than 5.00; on CDK13 it was 6.67. The compound further had a pKd at CDK12 [4] of less than 6.30.

For `C=CC(=O)NC1(c2ccc(-c3ccc([C@H](C)C(=O)Nc4cc(C5CC5)[nH]n4)cc3)cn2)CC1` [Compound 18, (S)-N-(1-(5-(4-(1-((5-cyclopropyl-1H-pyrazol-3-yl)amino)-1-oxopropan-2-yl)phenyl)pyridin-2-yl)cyclopropyl)acrylamide], the pIC50 was 5.26 against CDK7 [3] and 6.92 on CDK13. This compound gave a negative-log Kd (pKd) on CDK12 [4] greater than 7.30.

In the case of `C=CC(=O)NCc1ccc(-c2ccc(C(C)C(=O)Nc3cc(C4CC4)[nH]n3)cc2)cc1` (single isomer, unassigned) [Compound 10, N-((4′-(1-((5-cyclopropyl-1H-pyrazol-3-yl)amino)-1-oxopropan-2-yl)-[1,1′-biphenyl]-4-yl)methyl)acrylamide], the pIC50 on CDK7 [3] is less than 5.00; on CDK13, 6.09. For the same compound, on CDK12 [4], the pKd is less than 6.30.

For the compound `CC(C(=O)Nc1cc(C2CC2)[nH]n1)c1ccc(-c2ccc(CNC(=O)/C=C/CN3CCOCC3)nc2)cc1` (single isomer, unassigned) [Compound 14, (E)-N-((5-(4-(1-((5-cyclopropyl-1H-pyrazol-3-yl)amino)-1-oxopropan-2-yl)phenyl)pyridin-2-yl)methyl)-4-morpholinobut-2-enamide], the values for the negative-log IC50 (pIC50) on CDK7 [3] and at CDK13 were 5.95 and 8.41, respectively. Besides, on CDK12 [4], the pKd was greater than 7.30.

For the origin of these results see patent US20230212142A9, “Substituted 5-Cyclopropyl-1H-pyrazole-3-yl-amine Derivatives as Selective CDK12/13 Inhibitors” (Aurigene Discovery Technologies Limited, priority 2019, published 2023).
